This note sets out measurements from PubChem BioAssay AID489033 (Sanford-Burnham Center for Chemical Genomics, 2010).

The source made the active and inactive calls. The rule behind the calls is not given here. Where only a bound is given, the exact number is not on record here.

The test system of this assay is 697B B-cell line, NF-kB luciferase reporter luminescence. The assay can be described thus: NF-kB reporter inhibition in B cells, dose response, selectivity assay for T-cell antigen receptor NF-kB inhibitors, 697B cells, luminescence (AID 489033).
For `Cc1oc(-c2ccc(Cl)cc2)nc1CS(=O)CC(=O)NCCCN1CCN(Cc2ccccc2)CC1` (stereo not given), the IC50 (usually the point on the concentration scale where inhibition reaches its midpoint) is 60.8 µM (inactive).
For `CCOc1ccccc1C(=O)Nc1ccc2nc(N3CCN(c4ncccn4)CC3)cc(C)c2c1` the value was 4.69 µM.
Next, `O=C(Nc1ccncc1)C1CCCN(S(=O)(=O)c2cccc3cccnc23)C1` (stereo not given): > 80 µM (inactive); `CCN1/C(=C/c2ccc3cc(C)ccc3[n+]2CC)Sc2ccc3sccc3c21`: 9.39 µM; `COc1ccc(/C=N\NC(=O)c2ccccc2F)cc1COc1ccc(F)cc1F`: > 80 µM (inactive).
As to `Cc1ccnc2c1ccc1c(C)ccnc12`, the IC50 is 10.1 µM.
As for `Cc1ccc(O)c(NC(=O)c2cc(-c3ccccc3)on2)c1`, the IC50 is > 80 µM (inactive).
Consider `CC(Oc1ccc(Cl)cc1Cl)c1nc(-c2ccc(NC(=O)c3ccncc3)cc2)no1` (stereo not given), for which the IC50 is 29.5 µM (inactive).
For `Cc1c(C)c2ccc(OCC(=O)Nc3ccccn3)c(C)c2oc1=O` the value was 7.65 µM; for `O=S(=O)(c1cc(F)ccc1F)N1CCN(c2ncnc3ccccc23)CC1`, 74.1 µM (inactive); for `Cc1ccc(/C=N/NC(=O)C2COc3ccccc3O2)s1` (stereo not given), 45.6 µM (inactive).
Next, `C/C=C(\C)C(=O)N[C@@H](c1ccccc1)[C@@H](O)C(=O)O[C@H]1C[C@@]2(O)[C@@H](OC(=O)c3ccccc3)C3[C@](C)(C(=O)[C@H](OC(C)=O)C(=C1C)C2(C)C)[C@H](O)C[C@H]1OC[C@@]31OC(C)=O` (stereo not given in full): > 80 µM (inactive); `Cc1cc(C(=O)N2CC=C(c3ccccc3)CC2)c2ccccc2n1`: > 80 µM (inactive); `COc1cccc(OC)c1C1=NCC(=O)Nc2c1oc1ccc(Br)cc21`: 56.8 µM (inactive).
For `Cc1cccc(N2CCN(C(=O)c3ccc4[nH]c(C)c(C)c4c3)CC2)c1C` the value was > 80 µM (inactive); for `COc1ccc(C)cc1NS(=O)(=O)c1ccc(-c2cnc(C3CC3)o2)cc1`, > 80 µM (inactive).
Turning to `c1ccc(-c2noc(-c3ccc4ccccc4c3)n2)nc1`, the half-maximal inhibitory concentration (IC50) is 0.73 µM.
Next, `COC(=O)c1ccccc1NC(=O)CSc1nc(-c2ccco2)cc(C(F)(F)F)n1`: > 80 µM (inactive).
Next, `O=C(N/N=C(\c1ccccc1)c1cccnc1)c1cccc(F)c1`: 3.1 µM; `CC(C)Cn1c(N)c(C(=O)CSc2ccc3c(c2)OCCO3)c(=O)n(C)c1=O`: 51.7 µM (inactive).
On to `CCOC(=O)c1[nH]c(C=O)c(C(=O)OCC)c1C`, for which the IC50 is 59.5 µM (inactive).
Turning to `Cn1nc([N+](=O)[O-])nc1Sc1nnc(-c2ccccc2)o1`, the IC50 was 17.8 µM.
`O=C(OCCN1C(=O)c2cccc3c(N4CCOCC4)ccc(c23)C1=O)c1ccc(Cl)cc1`: the IC50 is > 80 µM (inactive).
`C[C@]12CC[C@@H]3c4cc(O)c(O)cc4CC[C@H]3[C@@H]1CC[C@@H]2O`: the IC50 is 14.3 µM.
For `CCn1c(C)cc(C(=O)CN2C(=O)c3ccccc3S2(=O)=O)c1C` the value was 0.74 µM; for `CCOc1ccccc1C1CC(=O)Nc2cc(C)c(C)cc21` (stereo not given), > 80 µM (inactive).
Take `c1cc2c(cc1C1=NNC(=NC3CC3)SC1)OCCO2`: the half-inhibitory concentration (IC50) is 0.3 µM.
For `CCCCC(=O)NC(c1ccc(N(CC)CC)cc1)c1ccc2cccnc2c1O` (stereo not given) the value was > 80 µM (inactive); for `C[C@]12CC[C@H](O)C[C@H]1CC[C@@H]1[C@@H]2CC[C@]2(C)[C@@H](C3=CC(=O)OC3)CC[C@]12O`, 0.67 µM.
As for `COc1cccc(N2CCN(c3ncnc4c3cnn4-c3ccc(C)cc3C)CC2)c1`, the IC50 was 1.58 µM.
Next, `COC(=O)c1[nH]c2c(c1C)C(=O)CC(c1cccc(OC)c1)C2` (stereo not given): > 80 µM (inactive); `Cc1c(C(=O)N/N=C/c2c(O)ccc3ccccc23)nnn1-c1nonc1N`: 34.7 µM (inactive).
For `COc1cc(C2=NOC(C(=O)NCc3ccc(F)cc3)C2)cc(OC)c1OC` (stereo not given) the value was > 80 µM (inactive).
On to `CCCC(=O)NC(c1ccc(N(C)C)cc1)c1ccc2cccnc2c1O` (stereo not given), for which the IC50 was > 80 µM (inactive).
For `COc1cccc(-c2cc(=O)c3cc(NC(=O)c4ccccc4)ccc3[nH]2)c1` the value was > 80 µM (inactive).
Take `O=C(Nc1cccc(C(F)(F)F)c1)c1sc(Cl)nc1C(F)(F)F`: the IC50 was 1.37 µM.
Next, `COc1cc(/C=C/[N+](=O)[O-])ccc1OCc1cccc(C(=O)O)c1`: 12 µM; `COC(=O)C1CN(C#N)N(c2ccc(Cl)cc2)C12c1ccccc1-c1ccccc12` (stereo not given): 3.58 µM.
Next, `CCCN1C=CC(=C2C(=O)c3ccccc3C2=O)C=C1`: under 0.16 µM.
Next, `O=C(c1ccccc1)c1cc([N+](=O)[O-])ccc1N1CCOCC1`: > 80 µM (inactive); `Cc1ccc(-c2cc(-c3ccc(C)cc3)[n+](-c3ccccc3)c(-c3ccc(C)cc3)c2)cc1`: 0.7 µM; `COc1cc(/C=C/c2ccc3cccc(O)c3n2)cc(OC)c1OC`: 0.63 µM.
`CCN1/C(=C/c2ccc3ccccc3[n+]2CC)C=Cc2ccccc21`: the IC50 was 3.57 µM.
Next, `CCOC(=O)C(C)Oc1cccc2c(=O)n(CC(=O)NCc3ccccc3)ccc12` (stereo not given): > 80 µM (inactive); `O=C(COc1ccccc1-c1ccccc1)N/N=C/c1cccc2ccccc12`: > 80 µM (inactive); `CCOC(=O)c1ccc(NC(=O)Cn2cnc3cc(C)c(C)cc32)cc1`: > 80 µM (inactive).
For the compound `CCOC(=O)c1[nH]c(C)c(C(=O)c2cc(F)ccc2F)c1C`, the IC50 is > 80 µM (inactive).
As for `O=S(=O)(C/C(=C/CO)S(=O)(=O)c1ccccc1)c1ccccc1`, the IC50 was 0.28 µM.
Next, `CCCCC(=O)NC(c1ccc(Cl)cc1Cl)c1ccc2cccnc2c1O` (stereo not given): > 80 µM (inactive); `COC(=O)C[C@]1(C(=O)OC)CN(C#N)N(c2ccc(Cl)cc2)C12c1ccccc1-c1ccccc12`: 4.43 µM.
In the case of `O=C(CNC(=O)c1ccco1)N=Nc1c(O)n(CCc2ccccc2)c2ccccc12`, the IC50 was > 80 µM (inactive).
Next, `COc1ccc2c(C)nc(Nc3nc(-c4ccccc4)cc(=O)[nH]3)nc2c1`: > 80 µM (inactive).
For the compound `CCN(CC)c1ccc2nc3ccccc3[n+](CC)c2c1`, the IC50 is 45.8 µM (inactive).
For `CCOC(=O)COc1cccc2c(=O)n(CC(=O)NCc3ccc(F)cc3)ccc12` the value was > 80 µM (inactive).
`Cc1ccc(S(=O)(=O)NCc2ccncc2)cc1C`: the IC50 is > 80 µM (inactive).
For `O=C(Nc1ccc(N2CCN(C(=O)c3ccc(Cl)cc3)CC2)cc1)c1ccc2c(c1)OCCO2` the value was > 80 µM (inactive); for `N#C/C(=C\c1ccc(OCc2ccc(C(=O)O)cc2)cc1)C(=O)N1CCOCC1`, 5.92 µM; for `CCOc1ccc(N(C)S(=O)(=O)c2ccc(-c3cc(C)no3)s2)cc1`, > 80 µM (inactive).
Next, `CC1(C)Cc2nc3sc4c(=O)n(CC(=O)NCc5ccccc5)cnc4c3cc2CO1`: > 80 µM (inactive).
Consider `COc1ccc(CS(=O)/C(Cl)=C(/Cl)C(=O)Nc2ccc(OC)nc2)cc1` (stereo not given), for which the IC50 was 1.57 µM.
For `CCOC(=O)CSC1=C(C#N)C(c2ccc(C)s2)CC(=O)N1` (stereo not given) the value was > 80 µM (inactive); for `CCN(CC)c1ccc2nc3ccc(N)cc3[n+](-c3ccccc3)c2c1`, 57.5 µM (inactive).
Next, `C=C1C(=O)O[C@H]2C[C@@H](C)[C@@H]3C=CC(=O)[C@@]3(C)C[C@H]12`: 1.25 µM.
Next, `Cc1ccc2nc(C)c(CN3CCN(c4ccc([N+](=O)[O-])cc4Cl)CC3)n2c1`: > 80 µM (inactive).
In the case of `CC(=O)c1sc2c(c1OC(=O)c1ccc(Cl)cc1Cl)c(=O)n(-c1ccccc1)c(=S)n2-c1ccccc1`, the IC50 was 1.93 µM.
Next, `CCn1cc(C(=O)NC2CCCc3c2cnn3-c2cccc(C)c2C)cn1` (stereo not given): > 80 µM (inactive); `CCO[C@@H]1OC(C(=O)NCc2nc3ccccc3[nH]2)=C[C@H](C(C)(C)C)[C@H]1CCCO`: > 80 µM (inactive); `COc1ccccc1CNS(=O)(=O)c1ccc(-c2cnc(C3CC3)o2)cc1`: > 80 µM (inactive).
With `Cc1c(C(=O)OC2CCCC2)[nH]c2c1C(=O)CC(c1ccco1)C2` (stereo not given), the IC50 was > 80 µM (inactive).
Take `COc1ccc(C2=NOC(C(=O)NCc3cccs3)C2)cc1OC` (stereo not given): the IC50 is > 80 µM (inactive).
For `COc1ccc(NC(=O)/C(Cl)=C(/Cl)S(=O)Cc2ccc(Cl)cc2)cn1` (stereo not given) the value was 0.18 µM.
Take `CC1=CC(C)(C)N(S(=O)(=O)c2ccc(C)cc2)c2cc(C)ccc21`: the IC50 is > 80 µM (inactive).
Take `CC(=O)N(C)C1=C(N2CCOCC2)C(=O)c2ccccc2C1=O`: the IC50 is 17.9 µM.
As for `CCCCCCCn1c2c(c(=N)c3ccccc31)CCC2`, the IC50 was 3.7 µM.
Next, `CC(=O)O[C@@]12CO[C@@H]1C[C@H](O)[C@@]1(C)C(=O)[C@H](O)C3=C(C)[C@@H](OC(=O)[C@H](O)[C@@H](NC(=O)c4ccccc4)c4ccccc4)C[C@@](O)([C@@H](OC(=O)c4ccccc4)C12)C3(C)C` (stereo not given in full): > 80 µM (inactive); `Cc1ccc(S(=O)(=O)NCc2ccncc2)c(C)c1C`: > 80 µM (inactive); `CCn1ncc(C2=NOC(C(=O)NCc3ccc(Cl)cc3)C2)c1C` (stereo not given): > 80 µM (inactive).
For `Cc1cccc(N2CCN(C(=O)c3ccc(S(=O)(=O)N(C)c4ccccc4)cc3)CC2)c1C` the value was > 80 µM (inactive).
As to `O=Cc1cc2ccccc2nc1SCc1ccc(Cl)c(Cl)c1`, the IC50 was 48.8 µM (inactive).
Next, `CC(=O)NC(c1ccc(C(C)C)cc1)c1ccc2cccnc2c1O` (stereo not given): > 80 µM (inactive); `NS(=O)(=O)c1ccc(Sc2nc3ccccc3s2)c([N+](=O)[O-])c1`: 1.34 µM.
Next, `C=C(C)COc1ccc(-c2n[nH]c(C)c2-c2ccc(OC)c(OC)c2)c(O)c1`: 43.3 µM (inactive); `Cc1cccc(NS(=O)(=O)c2ccc(-c3cnc(C4CC4)o3)cc2)c1`: > 80 µM (inactive); `CCC(O)C1CCN(C(=O)c2cc(COc3ccc4ncccc4c3)on2)CC1` (stereo not given): 3.88 µM.
For `O=C1C=CC(O)(c2cc(=O)c3c(O)cc(O)cc3o2)C=C1` the value was 1.62 µM.
